Tests used:
Conditions in all cases: 72 h
[1] = system: Caco-2; experiment: cell viability relative to DMSO; higher = less toxic
[2] = system: Calu-3; experiment: as above
[3] = system: U2OS; experiment: as above
[4] = system: HepG2; experiment: as above
[5] = system: Caco-2; experiment: drug sensitivity score (DSS) for viability; higher = more toxic; extreme values may be limits of the assay
[6] = system: Calu-3; experiment: as above
[7] = system: U2OS; experiment: as above
[8] = system: HepG2; experiment: as above
[9] = system: Caco-2; experiment: relative viability EC50 (midpoint between 100% and the lowest measured viability); higher = less toxic
[10] = system: Calu-3; experiment: as above
[11] = system: U2OS; experiment: as above
[12] = system: HepG2; experiment: as above
[13] = system: Vero E6; experiment: cell viability relative to DMSO; higher = less toxic
[14] = system: Vero E6; experiment: drug sensitivity score (DSS) for viability; higher = more toxic; extreme values may be limits of the assay
[15] = system: Vero E6; experiment: relative viability EC50 (midpoint between 100% and the lowest measured viability); higher = less toxic

| Compound | cell viability ([1]; 1 nM) [%] | cell viability ([1]; 10 nM) [%] | cell viability ([1]; 100 nM) [%] | cell viability ([1]; 1000 nM) [%] | cell viability ([1]; 10000 nM) [%] | cell viability ([2]; 1 nM) [%] | cell viability ([2]; 10 nM) [%] | cell viability ([2]; 100 nM) [%] | cell viability ([2]; 1000 nM) [%] | cell viability ([2]; 10000 nM) [%] | cell viability ([3]; 1 nM) [%] | cell viability ([3]; 10 nM) [%] | cell viability ([3]; 100 nM) [%] | cell viability ([3]; 1000 nM) [%] | cell viability ([3]; 10000 nM) [%] | cell viability ([4]; 1 nM) [%] | cell viability ([4]; 10 nM) [%] | cell viability ([4]; 100 nM) [%] | cell viability ([4]; 1000 nM) [%] | cell viability ([4]; 10000 nM) [%] | drug sensitivity score [5] | drug sensitivity score [6] | drug sensitivity score [7] | drug sensitivity score [8] | relative viability EC50 [9] [µM] | relative viability EC50 [10] [µM] | relative viability EC50 [11] [µM] | relative viability EC50 [12] [µM] | cell viability ([13]; 1 nM) [%] | cell viability ([13]; 10 nM) [%] | cell viability ([13]; 100 nM) [%] | cell viability ([13]; 1000 nM) [%] | cell viability ([13]; 10000 nM) [%] | drug sensitivity score [14] | relative viability EC50 [15] [µM] |
| --- | --- | --- | --- | --- | --- | --- | --- | --- | --- | --- | --- | --- | --- | --- | --- | --- | --- | --- | --- | --- | --- | --- | --- | --- | --- | --- | --- | --- | --- | --- | --- | --- | --- | --- | --- |
| CCN(CCCCOC(=O)c1ccc(OC)c(OC)c1)C(C)Cc1ccc(OC)cc1 (stereo unspecified) [mebeverine] | 101 | 96.3 | 97.2 | 90.8 | 83.8 | 95.2 | 98.3 | 101 | 100 | 93.8 | 102 | 99.4 | 99.1 | 102 | 96.3 | 105 | 112 | 100 | 103 | 91.6 | 0.6 | 0 | 0 | 0 | > 10 | > 10 | > 10 | > 10 | – | – | – | – | – | – | – |
| Sc1ncnc2nc[nH]c12 [mercaptopurine] | 110 | 103 | 109 | 77 | 89.6 | 113 | 91 | 94.3 | 90.8 | 106 | 102 | 101 | 93.4 | 71 | 65.1 | 112 | 115 | 107 | 69.7 | 18.8 | 3.1 | 0 | 5.6 | 8.7 | > 10 | > 10 | – | 1.23 | 103 | 104 | 99.5 | 103 | 70.6 | 1.1 | – |
| COc1ccc(C2=N[C@@H](c3ccc(Cl)cc3)[C@@H](c3ccc(Cl)cc3)N2C(=O)N2CCNC(=O)C2)c(OC(C)C)c1 [nutlin-3] | 94.2 | 92.1 | 92.5 | 97.9 | 89.1 | 91.6 | 98.1 | 89.7 | 92.4 | 108 | 94.7 | 93.6 | 95.3 | 98.7 | 75.2 | 104 | 115 | 109 | 89.7 | 35 | 0 | 0 | 1.1 | 5.3 | > 10 | > 10 | > 10 | 1.95 | 106 | 98.9 | 94.5 | 97.5 | 63.7 | 2.1 | – |
| CCC(CC)[C@H](NC(C)=O)[C@@H]1[C@H](O)[C@@H](C(=O)O)C[C@H]1NC(=N)N [peramivir] | 98.8 | 101 | 104 | 105 | 102 | 93.3 | 98.3 | 98.1 | 107 | 101 | 103 | 110 | 98.9 | 110 | 104 | 110 | 98.6 | 102 | 110 | 98.9 | 0 | 0 | 0 | 0 | > 10 | > 10 | > 10 | > 10 | – | – | – | – | – | – | – |
| NNCCc1ccccc1 [phenelzine] | 88.4 | 100 | 93.4 | 92.6 | 75.1 | – | – | – | – | – | 98.4 | 98.7 | 94.6 | 99.8 | 95.1 | 109 | 92.8 | 84.1 | 120 | 91.4 | 1.4 | – | 0 | 0 | > 10 | – | > 10 | > 10 | 105 | 103 | 101 | 90.3 | 98 | 0 | > 10 |
| NC(=O)CN1CC(c2ccccc2)CC1=O (stereo unspecified) [phenylpiracetam] | 104 | 103 | 93.1 | 102 | 91.8 | 103 | 97.3 | 99.5 | 98.5 | 91.7 | 99.3 | 102 | 98.1 | 102 | 98.1 | 112 | 107 | 104 | 94 | 104 | 0 | 0 | 0 | 0 | > 10 | > 10 | > 10 | > 10 | – | – | – | – | – | – | – |
| CC(C)(C)NC(=O)[C@@H]1C[C@@H]2CCCC[C@@H]2CN1C[C@@H](O)[C@H](Cc1ccccc1)NC(=O)[C@H](CC(N)=O)NC(=O)c1ccc2ccccc2n1 [saquinavir] | 101 | 87.9 | 95.7 | 90.4 | 72.4 | 96.8 | 104 | 93.2 | 102 | 109 | 101 | 101 | 100 | 103 | 89.8 | 91.8 | 90.1 | 100 | 82.2 | 84.3 | 1.9 | 0 | 0 | 1 | – | > 10 | > 10 | > 10 | 103 | 101 | 104 | 85.1 | 101 | 0 | > 10 |
| CC(C)N(CCCCOCC(=O)NS(C)(=O)=O)c1cnc(-c2ccccc2)c(-c2ccccc2)n1 [selexipag] | 110 | 103 | 94.5 | 107 | 105 | 95 | 105 | 97.3 | 110 | 105 | – | – | – | – | – | – | – | – | – | – | 0 | 0 | – | – | > 10 | > 10 | – | – | 100 | 102 | 93 | 98.4 | 93.2 | 0 | > 10 |
| CC1=CC[C@@H](C(C)(C)O)C[C@@H]1O [sobrepin] | 109 | 121 | 94.4 | 103 | 87.9 | – | – | – | – | – | – | – | – | – | – | 109 | 99.6 | 114 | 103 | 110 | 0 | – | – | 0 | > 10 | – | – | > 10 | 98 | 99.7 | 96.3 | 98.1 | 90.7 | 0 | > 10 |
| O=S(=O)(O)Oc1ccc(C(c2ccc(OS(=O)(=O)O)cc2)c2ccccn2)cc1 [sodium-picosulfate] | 88.4 | 102 | 96.3 | 102 | 106 | 87.6 | 95 | 82.2 | 100 | 93.8 | 102 | 106 | 97.1 | 104 | 99.1 | – | – | – | – | – | 0 | 0 | 0 | – | > 10 | > 10 | > 10 | – | – | – | – | – | – | – | – |
| O=C(OC[C@H]1O[C@@H](OC(=O)c2cc(O)c(O)c(OC(=O)c3cc(O)c(O)c(O)c3)c2)[C@H](OC(=O)c2cc(O)c(O)c(OC(=O)c3cc(O)c(O)c(O)c3)c2)[C@@H](OC(=O)c2cc(O)c(O)c(OC(=O)c3cc(O)c(O)c(O)c3)c2)[C@@H]1OC(=O)c1cc(O)c(O)c(OC(=O)c2cc(O)c(O)c(O)c2)c1)c1cc(O)c(O)c(OC(=O)c2cc(O)c(O)c(O)c2)c1 [tannic-acid] | 99.6 | 93.5 | 90.5 | 99.1 | 43.5 | 94.4 | 99.9 | 98.6 | 108 | 78.8 | 97.7 | 98.5 | 93.7 | 97.8 | 53.1 | 108 | 94.6 | 104 | 104 | 74.2 | 3.2 | 0.4 | 2.7 | 0.8 | 3.04 | > 10 | – | – | 103 | 109 | 102 | 77.4 | 48.8 | 5.7 | 1.1 |
| c1cnc(SCc2cccnc2)nc1 [tasuldine] | 96.5 | 96.9 | 101 | 94.8 | 101 | – | – | – | – | – | 101 | 96.3 | 101 | 94.3 | 99.9 | 105 | 105 | 105 | 106 | 97.9 | 0 | – | 0 | 0 | > 10 | – | > 10 | > 10 | 105 | 98.5 | 96.7 | 102 | 99.7 | 0 | > 10 |
| CC(C)OC(=O)[C@H](C)N[P@](=O)(CO[C@H](C)Cn1cnc2c(N)ncnc21)Oc1ccccc1 [tenofovir-alafenamide] | 99.3 | 100 | 98.2 | 108 | 94.3 | 106 | 97.4 | 112 | 104 | 78.9 | 99.4 | 102 | 97.4 | 100 | 95.6 | 98.8 | 91.9 | 116 | 89 | 44.6 | 0 | 0.5 | 0 | 4.8 | > 10 | > 10 | > 10 | 1.75 | – | – | – | – | – | – | – |
| S=C(NCCc1ccccn1)Nc1ccc(Br)cn1 [trovirdine] | 94.9 | 91.6 | 98.4 | 90 | 98.1 | 89.2 | 96.2 | 101 | 102 | 108 | 104 | 100 | 98.4 | 104 | 98.7 | 103 | 105 | 102 | 106 | 92.1 | 0 | 0 | 0 | 0 | > 10 | > 10 | > 10 | > 10 | – | – | – | – | – | – | – |
| CCCC(CCC)C(=O)NCC(N)=O [valrocemide] | 95.6 | 94.1 | 91.5 | 90.9 | 97.6 | – | – | – | – | – | 104 | 101 | 97.7 | 104 | 98.9 | 94.6 | 101 | 95.6 | 102 | 101 | 0 | – | 0 | 0 | > 10 | – | > 10 | > 10 | 97.3 | 104 | 104 | 97.8 | 101 | 0 | > 10 |

Source: the supplement of paper PMC13380429
